Source: PMC10108353, “Design and Pharmacological Characterization of α4β1 Integrin Cyclopeptide Agonists: Computational Investigation of Ligand Determinants for Agonism versus Antagonism” (Journal of Medicinal Chemistry, 2023)

What was measured:
[1] = molecular target: α4β1 integrin (Homo sapiens, UniProt P05556+P13612); assay: Competitive solid-phase binding assay, purified α4β1 / VCAM-1; set-up: purchased R&D Systems; conditions: read-out: Binding affinity IC50, α4β1/VCAM-1
Procedure: (§1) For the evaluation of binding affinity to purified α4β1, αMβ2, and α4β7 integrins, competitive solid-phase ligand binding assays were performed as follows. […] Afterward, each well was washed and blocked for 1 h at RT. Purified integrins (α4β1: 0.5 μg/mL; α4β7: 0.5 μg/mL; αMβ2: 0.5 μg/mL; R&D Systems) were preincubated with serial dilutions of new compounds (10^–4 – 10^–10 M) for 30 min at RT and then plated into coated wells for 1 h at RT. After two washes, primary antibody (for α4β1 and α4β7: rabbit anti-α4, Abcam, 1:100 dilution; for αMβ2: rabbit anti-αM, Abcam, 1:100 dilution) was added and incubated for 1 h at RT. The plate was washed twice and then was incubated with anti-rabbit AlexaFluor488 secondary antibody (1:400 dilution, ThermoFischer Scientific) for 1 h at RT. After washing three times, fluorescence was measured as described in the previous section.

[2] = molecular target: αMβ2 integrin (Homo sapiens, UniProt P05107+P11215); assay: Competitive solid-phase binding assay, purified αMβ2 / fibrinogen; set-up: purchased R&D Systems; conditions: read-out: Binding affinity IC50, αMβ2/Fg
Procedure: as §1

[3] = molecular target: α5β1 integrin (Homo sapiens, UniProt P05556+P08648); assay: Competitive solid-phase binding assay, purified α5β1 / FN; conditions: read-out: Binding affinity IC50, α5β1/FN
Procedure: Solid-phase ligand binding assays on purified integrin were conducted as previously described[34] with the following modifications. […] The following day, wells were blocked with TSB buffer (20 mM Tris-HCl, 150 mM NaCl, 1 mM CaCl2, 1 mM MgCl2, 1 mM MnCl2, pH 7.5, 1% BSA) for 1 h at room temperature. Purified α5β1 (10 μg/mL) or αLβ2 (7 μg/mL) was incubated with the new synthesized compounds, at different concentrations (10^–4 to 10^–10 M), in coated wells for 1 h at RT. Then, after three washes with PBST buffer, primary antibody (anti-α5β1, BD Bioscience, 1:100 dilution or anti-αL, Abcam, 1:200 dilution) was added for 1 h at RT. Then antirabbit AlexaFluor488-secondary antibody (ThermoFisher Scientific, 1:400 dilution) was added after three washes with PBST buffer and incubated 1 h at room temperature.

[4] = molecular target: T1, α4β7 integrin (Homo sapiens, UniProt P13612+P26010); conditions: purified integrin; read-out: Binding affinity IC50, α4β7/MAdCAM-1
T1 construct: purchased R&D Systems
T1 sequence (P13612 34-970 limits assumed): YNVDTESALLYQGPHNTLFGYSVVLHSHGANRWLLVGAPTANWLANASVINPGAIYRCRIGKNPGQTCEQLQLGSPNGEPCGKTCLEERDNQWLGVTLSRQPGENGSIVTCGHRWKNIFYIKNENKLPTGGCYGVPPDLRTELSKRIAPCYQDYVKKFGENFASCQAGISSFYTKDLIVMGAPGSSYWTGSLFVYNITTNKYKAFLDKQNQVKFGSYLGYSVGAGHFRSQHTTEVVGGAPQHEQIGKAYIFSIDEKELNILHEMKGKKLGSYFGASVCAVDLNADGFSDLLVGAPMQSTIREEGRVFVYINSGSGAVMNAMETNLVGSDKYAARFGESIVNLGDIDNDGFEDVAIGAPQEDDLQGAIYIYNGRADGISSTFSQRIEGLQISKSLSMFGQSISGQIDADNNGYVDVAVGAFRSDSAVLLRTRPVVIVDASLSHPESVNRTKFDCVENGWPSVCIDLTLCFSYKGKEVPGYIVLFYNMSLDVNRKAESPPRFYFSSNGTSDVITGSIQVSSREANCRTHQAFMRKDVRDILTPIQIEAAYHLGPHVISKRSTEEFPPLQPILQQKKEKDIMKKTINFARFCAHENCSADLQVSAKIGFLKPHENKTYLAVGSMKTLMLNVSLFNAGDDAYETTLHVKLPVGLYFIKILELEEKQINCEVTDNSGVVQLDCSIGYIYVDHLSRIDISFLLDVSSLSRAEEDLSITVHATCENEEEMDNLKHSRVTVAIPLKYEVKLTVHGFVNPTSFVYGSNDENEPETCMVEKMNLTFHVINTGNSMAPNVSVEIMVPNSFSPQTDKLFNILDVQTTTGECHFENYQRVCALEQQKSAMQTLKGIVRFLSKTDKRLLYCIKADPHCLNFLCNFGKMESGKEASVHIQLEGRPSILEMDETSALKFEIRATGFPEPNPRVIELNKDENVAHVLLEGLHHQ
T1 sequence (P26010 20-723 limits assumed): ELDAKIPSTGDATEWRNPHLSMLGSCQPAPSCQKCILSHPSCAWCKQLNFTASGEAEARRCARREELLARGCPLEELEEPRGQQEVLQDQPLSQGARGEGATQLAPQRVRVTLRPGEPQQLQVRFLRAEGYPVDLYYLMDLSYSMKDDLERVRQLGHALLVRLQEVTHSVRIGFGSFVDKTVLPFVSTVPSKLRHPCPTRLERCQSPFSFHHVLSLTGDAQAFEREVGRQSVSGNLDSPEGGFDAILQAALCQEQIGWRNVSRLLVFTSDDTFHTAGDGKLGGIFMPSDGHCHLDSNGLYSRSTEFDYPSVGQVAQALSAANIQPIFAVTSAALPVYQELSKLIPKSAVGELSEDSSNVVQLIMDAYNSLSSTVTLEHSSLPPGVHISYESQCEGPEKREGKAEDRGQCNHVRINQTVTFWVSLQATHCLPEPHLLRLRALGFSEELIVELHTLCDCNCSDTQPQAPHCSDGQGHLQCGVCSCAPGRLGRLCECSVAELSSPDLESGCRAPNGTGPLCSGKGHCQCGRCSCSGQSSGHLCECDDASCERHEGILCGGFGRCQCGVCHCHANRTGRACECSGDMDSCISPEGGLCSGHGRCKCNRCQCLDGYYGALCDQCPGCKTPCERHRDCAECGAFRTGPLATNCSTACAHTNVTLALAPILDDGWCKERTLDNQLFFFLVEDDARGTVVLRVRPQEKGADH
Procedure: as §1

Compound | IC50 [1] [µM] | IC50 [2] [µM] | IC50 [3] [µM] | IC50 [4] [µM]
Cc1ccccc1NC(=O)N1C(=O)CC1CC(=O)NCC(=O)O (centres unmarked) [1b] | > 5 | > 5 | 0.049 ± 0.007 | > 5
Cc1ccccc1NC(=O)N1C(=O)CC1CC(=O)O (centres unmarked) [1a] | 0.0101 ± 0.0049 | > 5 | > 5 | > 5
